Experimental data: US20050112742A1, “High temperature and alkaline stable catalase” (priority 2003, published 2005)
Entries after “also recorded” stand apart in the source; their conditions may differ.

Key:
[1] = target: T1, Thermus brockianus catalase (SEQ ID NO:2, SEQ ID NO:5) (Thermus brockianus, UniProt A0ABM7XHT8); assay: Peroxidase activity with peroxidase substrates; type: biochemical; details: hydrogen peroxide 1 mM, 20 mM Tris pH 8.0, 70° C.
T1 construct: in solution and immobilized on Eupergit C
T1 sequence (A0ABM7XHT8 6-291): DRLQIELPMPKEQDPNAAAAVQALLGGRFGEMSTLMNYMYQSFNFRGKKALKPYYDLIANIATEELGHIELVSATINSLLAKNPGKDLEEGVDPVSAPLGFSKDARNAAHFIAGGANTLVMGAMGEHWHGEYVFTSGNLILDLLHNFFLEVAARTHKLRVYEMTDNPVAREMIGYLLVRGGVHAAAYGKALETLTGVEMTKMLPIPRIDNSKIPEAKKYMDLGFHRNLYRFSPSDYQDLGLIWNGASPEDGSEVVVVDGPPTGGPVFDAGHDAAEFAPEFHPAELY
Protocol: The reactions were monitored spectrophotometrically at 460 and 420 nm, respectively. The substrates were dissolved in 20 mM Tris buffer, pH 8.0, and the assays were conducted at 70° C.

[2] = target: Beef liver catalase (Bos taurus, UniProt P00432); details: Non-Immobilized Enzyme; inhibition observed at substrate concentrations above
Beef liver catalase, sequence (P00432 whole entry): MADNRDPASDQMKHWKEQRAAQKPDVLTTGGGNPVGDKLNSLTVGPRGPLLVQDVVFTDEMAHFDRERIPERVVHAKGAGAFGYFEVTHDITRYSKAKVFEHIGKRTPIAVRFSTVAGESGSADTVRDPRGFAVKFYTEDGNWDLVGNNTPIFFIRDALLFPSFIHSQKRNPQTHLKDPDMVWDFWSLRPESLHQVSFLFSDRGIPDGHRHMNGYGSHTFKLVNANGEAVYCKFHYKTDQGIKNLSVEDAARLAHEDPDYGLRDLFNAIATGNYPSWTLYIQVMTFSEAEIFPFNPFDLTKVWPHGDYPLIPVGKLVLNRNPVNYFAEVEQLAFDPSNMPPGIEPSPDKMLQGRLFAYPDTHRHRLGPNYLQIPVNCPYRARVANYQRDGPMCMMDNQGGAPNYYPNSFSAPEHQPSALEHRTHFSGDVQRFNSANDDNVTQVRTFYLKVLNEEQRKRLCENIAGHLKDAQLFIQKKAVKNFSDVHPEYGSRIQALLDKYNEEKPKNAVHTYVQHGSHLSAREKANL

[3] = tested on: R. capsulatus catalase or catalase-peroxidase; details: Table 3; cited from earlier work
[4] = tested on: Vitreoscilla sp. catalase or catalase-peroxidase; details: Table 3; cited from earlier work
[5] = tested on: M. tuberculosis catalase or catalase-peroxidase; details: cited from earlier work
[6] = tested on: Bacillus sp. catalase or catalase-peroxidase; details: cited from earlier work
[7] = tested on: E. coli catalase or catalase-peroxidase; details: Table 3; cited from earlier work
[8] = target: T1, Thermus brockianus catalase (SEQ ID NO:2, SEQ ID NO:5); assay: Michaelis-Menten kinetics of hydrogen peroxide decomposition (240 nm); type: biochemical; details: for Vmax: 20 mM Tris pH 8, 70° C.
Protocol: The buffer pH was adjusted to 8 at 70° C.
The constants were calculated by fitting the Michaelis-Menten equation to a plot of reaction velocity versus substrate concentration using nonlinear analysis (using GraFit Version 4, Erithacus Software Limited, Horley Surrey, U.K.). […] The enzyme was assayed as in Example I, except that it was preincubated with the inhibitor for 5 min prior to assay.
The turnover number was calculated assuming four active centers per catalase molecule.

[9] = tested on: Thermoascus aurantiacus catalase; details: cited from earlier work
[10] = tested on: N. crassa catalase or catalase-peroxidase; details: cited from earlier work
[11] = tested on: Thermoleophilum album catalase; details: cited from earlier work
[12] = tested on: A. nidulans catalase or catalase-peroxidase; details: cited from earlier work
[13] = tested on: T. brockianus catalase; type: biochemical, Thermus brockianus
[14] = tested on: Archaeoglobus fulgidus recombinant catalase-peroxidase (putative perA gene); details: in words; cited from earlier work
[15] = substrate: OO; assay: purified protein, by the assay type
[16] = Stability of immobilized catalase; type: physicochemical; details: 70° C.
Protocol: For beef liver catalase, the stability at 70° C. and pH 10 increased from no stability to being stable for 5 minutes. The A. niger catalase was stable for at least 6 hours under these conditions. The stability of immobilized T. brockianus catalase is assayed as done with immobilized beef liver catalase.

[17] = H2O2 concentration showing substrate inhibition

Q: With `CCn1c(=NN=c2sc3cc(S(=O)(=O)O)ccc3n2CC)sc2cc(S(=O)(=O)O)ccc21` [2,2′-azino-bis(3-ethylbenzothiazoline-6-sulfonic acid)] as the molecule, how does the peroxidase activity ([1]; substrate 10 mM, 420 nm) read?
A: absence of peroxidase activity

Q: With `OO` [hydrogen peroxide] as the molecule, how does the “substrate inhibition concentration (footnote b)” value [2] read?
A: ^bApproximated value - inhibition observed at substrate concentrations above 100 mM.

Q: What about the Km [3] of the same molecule?
A: 4.2 mM

Q: What about the Kcat [4] of the same molecule?
A: 26700 s⁻¹

Q: What about the Km [4] of the same molecule?
A: 16 mM

Q: And the Km ([5]; Table 3)?
A: 5.2 mM

Q: And the Kcat [5]?
A: 10100 s⁻¹

Q: What about the “H2O2 Inhibition” value [6, 17] of the same molecule?
A: 30 mM

Q: And the Km ([6]; Table 3)?
A: 6.8 mM

Q: What about the Kcat [7] of the same molecule?
A: 16300 s⁻¹

Q: And the Km [7]?
A: 3.9 mM

Q: And the Vmax ([8]; hydrogen peroxide 3 to 450 mM)?
A: 20.3 mM/min·mg protein

Q: What about the Vmax ([8]; Table 3) of the same molecule?
A: 20.3 mM/min/mg

Q: What about the “turnover number (kcat)” value ([8]; calculated assuming four active centers per catalase molecule, pH 8, 70° C.) of the same molecule?
A: 6000 s⁻¹

Q: What about the “H2O2 Inhibition” value ([8]; no inhibition observed for H2O2 concentrations up to 450 mM, pH 8, 70° C.) of the same molecule?
A: no apparent substrate inhibition/inactivation; also recorded: not inhibited; also recorded: None^c

Q: And the “H2O2 Inhibition” value [9, 17]?
A: 60 mM

Q: What about the Kcat ([9]; Table 3) of the same molecule?
A: 107000 s⁻¹

Q: And the Km ([9]; Table 3)?
A: 48 mM

Q: And the Km ([10]; Table 3)?
A: 25 mM

Q: And the “H2O2 Inhibition” value ([10]; no inhibition observed for H2O2 concentrations up to 200 mM)?
A: None^b

Q: What about the “H2O2 Inhibition” value [11, 17] of the same molecule?
A: 20 mM

Q: What about the Km ([11]; Table 3) of the same molecule?
A: 15 mM

Q: And the Vmax ([11]; Table 3)?
A: 2.3 mM/min/mg

Q: What about the “H2O2 Inhibition” value [12, 17] of the same molecule?
A: 10 mM

Q: What about the Kcat ([12]; Table 3) of the same molecule?
A: 7170 s⁻¹

Q: And the Km ([12]; Table 3)?
A: 4.3 mM

Q: For `COc1cc(-c2ccc(N)c(OC)c2)ccc1N` [o-dianisidine], which peroxidase activity ([1]; substrate 0.5 mM, 460 nm) is on record?
A: absence of peroxidase activity

Q: Which results are given for `Nc1nc[nH]n1` [3-amino-1,2,4-triazole]?
A: inhibition of T. brockianus catalase [13]: completely inhibited; inhibition of T. brockianus catalase (in words, no concentration given) [13]: inhibition; inhibition by 3-amino-1,2,4-triazole [14]: inhibited

B1: Thermus brockianus catalase (SEQ ID NO:2, SEQ ID NO:5) (Thermus brockianus) (protein)
chain: T1 sequence (A0ABM7XHT8 6-291)
Q: Which results are given for B1?
A: Km ([15]; other: 20 mM Tris pH 8, 70° C., hydrogen peroxide 3 to 450 mM, pH 8.0, 70.0 °C): 35.5 mM; Km ([15]; other: Immobilized Enzyme, packed column, PBS pH 7.2, 20 mL/min, optimum temperature, pH 7.2): 17 mM; Km ([15]; other: Non-Immobilized Enzyme, optimum temperature and pH): 35 mM

B2: Beef Liver: beef liver catalase, commercial comparison enzyme (protein, UniProt P00432 2-527, looked up)
Catalase: ADNRDPASDQMKHWKEQRAAQKPDVLTTGGGNPVGDKLNSLTVGPRGPLLVQDVVFTDEMAHFDRERIPERVVHAKGAGAFGYFEVTHDITRYSKAKVFEHIGKRTPIAVRFSTVAGESGSADTVRDPRGFAVKFYTEDGNWDLVGNNTPIFFIRDALLFPSFIHSQKRNPQTHLKDPDMVWDFWSLRPESLHQVSFLFSDRGIPDGHRHMNGYGSHTFKLVNANGEAVYCKFHYKTDQGIKNLSVEDAARLAHEDPDYGLRDLFNAIATGNYPSWTLYIQVMTFSEAEIFPFNPFDLTKVWPHGDYPLIPVGKLVLNRNPVNYFAEVEQLAFDPSNMPPGIEPSPDKMLQGRLFAYPDTHRHRLGPNYLQIPVNCPYRARVANYQRDGPMCMMDNQGGAPNYYPNSFSAPEHQPSALEHRTHFSGDVQRFNSANDDNVTQVRTFYLKVLNEEQRKRLCENIAGHLKDAQLFIQKKAVKNFSDVHPEYGSRIQALLDKYNEEKPKNAVHTYVQHGSHLSAREKANL
Q: What does the source list for B2?
A: stability, not immobilized ([16]; pH 10, before immobilization): no stability; time stable, immobilized enzyme ([16]; pH 10, immobilized): 5 min
